Data: paper PMC12454603 (Archives of Toxicology, 2025)
Several values for one entry are separate records, joined by “and”; a condition that tells them apart may be missing. Equal values may be shown once.

Key:
ES-D3 cells = assay: ES-D3 cell cytotoxicity (WST-1 viability) assay of the mEST; type: cell-based, mouse; conditions: 1-day and 5-day cytotoxicity, ES-D3 cells
Description: The viability of the ES-D3 cells following 1-day and 5-day exposure to the test compounds was measured with the WST-1 assay. To this end, 100 µL cell suspension was seeded in the inner 60 wells of 96-well plates at a concentration of 2 × 10^5 cells/ml for 1-day exposure and 10^4 cells/ml for 5-day exposure and incubated at 37 °C with 5% CO2 for 24 h. After 24 h, 100 µL exposure medium with 0.25% DMSO and the required concentration of the test compounds, solvent control, and positive control were added to the cells in triplicate. The plates were incubated at 37 °C with 5% CO2 for 1 day or 5 days until measurement. After the exposure period, 20 µL of the cell proliferation reagent WST-1 were added to each well that contained cells and the cells were incubated for 3 h at 37 °C with 5% CO2. The absorbance of each plate was measured at 440 nm and 620 nm with a SpectraMax iD3 (San Jose, USA).
The concentration–response data for the test compounds in the mEST were presented in three curves including curves for 1-day cytotoxicity, 5-day cytotoxicity, and 10-day differentiation assays. The obtained curves were fitted using the inhibition equation log (inhibitor) vs response (three parameters) option using GraphPad Prism software 5.0 (California, USA).

[1] = Sulfation of 3-OH-8-MBaP in incubations with rat liver S9; type: in vitro ADME; conditions: rat, rat liver S9, pH 7.4, rat liver S9, PAPS
Description: (§1) The conjugation of 3-OH-8-MBaP by sulfation was studied in incubations with rat liver S9 in vitro. The incubation time and S9 protein concentration were optimized to ascertain linearity of the sulfation reaction with respect to time and amount of protein. The 200 µL incubation mixture consisted of (final concentrations) […] Tris buffer (pH 7.4), 0.1 mg/ml rat liver S9, 0.2 mM PAPS and 0–100 µM 3-OH-8-MBaP. No metabolites were detected in control incubations without either rat liver S9 or co-factor PAPS. After 1-min pre-incubation of the incubation mixture without substrate, the reaction was initiated by adding substrate from a 100 times concentrated stock solution in DMSO (final concentration 1% DMSO (v/v)). The incubation mixture was incubated at 37 °C for 70 min after which 100 µL ice-cold acetonitrile was added to the incubation mixture to terminate the reaction. The incubation mixture was subsequently centrifuged at 3717g at 4 °C for 5 min. The supernatant was collected for subsequent UPLC analysis.
(§2) An Acquity UPLC system with a photodiode array (PDA) detector was used to quantify the metabolites formed in the glucuronidation and sulfation incubations. The supernatants of the incubation samples were injected onto an Acquity UPLC BEH® C18 column ([…], 1.7 µm, Waters, Milford, MA). The total running time per sample was 22 min with a flow rate of 0.6 ml/min. The temperature of column and auto sampler was 40 °C and 10 °C, respectively. The injection volume was 3.5 µL and the detection wavelength ranged from 190 to 400 nm. Two eluents were used including A (nanopure with 0.1% (v/v) TFA) and B (acetonitrile with 0.1% (v/v) TFA). The gradient elution started from 90% A and 10% B applied from 0.0 min to 0.5 min, which was changed to 10% A and 90% B from 0.5 to 15.5 min and then kept at 10% A and 90% B from 15.5 min to 18.5 min, and changed back to 90% A and 10% B from 18.5 to 22.0 min. Metabolites were quantified as previously described in our study on microsomal metabolism of BaP and several of its methyl substituted analogs (Wang et al [2022]).
(§3) The concentration of the glucuronidated and sulfated metabolites was further used to calculate the velocity of the enzymatic reaction expressed in nmol/min/mg S9 protein. The curve reflecting the substrate (3-OH-8-MBaP) concentration-dependent velocity of the metabolite formation was fitted by the Michaelis–Menten equation using GraphPad Prism 5 (California, USA). The kinetic constants derived included the Km (µM) and Vmax (nmol/min/mg S9 protein).
(§4) 3-OH-8-MBaP was subsequently modeled to be conjugated by glucuronidation and sulfation in the liver. The kinetic constants for these conjugation reactions were determined in incubation experiments described in Sect. […] The scaling factors from rat liver microsomes and rat liver S9 to the whole liver were 45 mg microsomal protein/g liver and 125 mg S9 protein/g liver, respectively (Houston and Galetin [2008]).

rat liver S9 = assay: as above; type: in vitro ADME
Description: as §1, §2, §3, §4

Cc1ccc2c(c1)cc1ccc3c(O)ccc4ccc2c1c43 [3-OH-8-MBaP, 3-Hydroxy-8-methyl-benzo[a]pyrene]
Cytotoxicity accompanying the inhibition of differentiation (ES-D3 cells): without accompanying cytotoxicity | Km at 70 min [1]: 26 µM | Km (rat liver S9; rat liver S9, PAPS): 26.1 µM | Vmax, sulfation of 3-OH-8-MBaP (rat liver S9; rat liver S9, PAPS): 0.15 nmol/min/mg S9 protein and 0.15^e nmol/min/mg S9 protein | Scaled Vmax, sulfation of 3-OH-8-MBaP (rat liver S9; scaled to whole liver, liver weight 9.1 g): 10 µmol/h/liver | Scaled Vmax, sulfation of 3-OH-8-MBaP (rat liver S9; scaled with 125 mg S9 protein/g liver): 1.16 µmol/h/g liver
